This note sets out measurements from PMC11423305, “Structure-Based Design of CBP/EP300 Degraders: When Cooperativity Overcomes Affinity” (JACS Au, 2024).

What is called GI50 is the concentration at which growth is held to half of that of the control. A lower GI50 goes with greater sensitivity of the cells. By Kd is commonly meant the concentration at which binding is half-saturated.

One assay has as its system MM1S cells. The experiment in a line: Cell viability (resazurin), MM1S. The class given is cell-based. To be noted: Homo sapiens, MM1.S, 72 h, 3 days. How it is done: The primer sequences used were:
Gene Gene ID Forward Primer (5’-3’) Reverse primer (5’-3’)
myc NM_001354870.1 GTAGTGGAAAACCAGCC […]
crebbp NM_004380.3 TGTCACAGGGACAGGTGC […]
Cells were plated onto 96 well plates at the following densities in 90 μl volume: 3x104
LP1 cells/well or 5x10^3 LNCaP cells/well both plated same day as treatment, or 2x104
MM1S cells/well or 1.5x10^3 SH-SY5Y cells/well both plated day prior to treatment.
Compounds were added in 10 μl to give the stated concentrations with a final
concentration of 0.1 % DMSO. Following 3 days of compound treatment, resazurin
(Acros Organics, 189900010) was added at a f inal concentration of 86 μM and incubated
for the following times: MM1S 5 h, LP1 3 h, LNCaP 1 h 30 min, SH-SY5Y 6 h.
Fluorescence (excitation = 560 nm, emission = 590 nm) was measured using a
spectraMax M5 microplate reader (Molecular Devices) and cell viability was calculated
relative to DMSO treated cells on the same plate. Data was fitted using a four -parameter
dose-response curve in GraphPad Prism v. 9.5.1, where the top is fixed at 100 %. GI50
values were calculated as the concentration required to inhibit cell viability to 50 %
relative to DMSO treated cells after 3 days.
Sample digestion and clean up: Treated cells were washed in PBS and cell pellets
were then lysed in 4 % SDS/Tris-HCl, treated with High Intensity Focused Ultrasound […]

A further assay deals with CBP-BRD (Homo sapiens, UniProt Q92793). The experiment in a line: BROMOscan ligand binding site-directed competition assay, CBP. Also on record: T7 phage display fusion with DNA tag for qPCR; purchased Eurofins Discovery (BROMOscan service); host or cells: E. coli infected with T7 phage. On the procedure: 2. Methods and General Procedures […]
Chain of CBP-BRD (Q92793 1085-1192 limits assumed): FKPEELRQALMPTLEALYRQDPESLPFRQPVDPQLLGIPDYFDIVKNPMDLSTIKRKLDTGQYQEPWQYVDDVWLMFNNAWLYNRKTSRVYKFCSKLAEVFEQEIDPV
KD values were determined using BROMOscan™ technology, carried out by Eurofins […]
Discovery according to their standard protocol. Briefly E. coli were infected with T7 phage […]
strains displaying bromodomains and bromodomain protein was subsequently purified […]
through lysis, centrifugation and filtration. Affinity resins were generated by incubation of […]
streptavidin-coated magnetic beads with biotinylated small molecules or acetylated […]
peptide ligands. Binding reactions were assembled by combining the bromodomains and […]
liganded affinity beads in binding buffer (17 % SeaBlock, 0.33x PBS, 0.04 % Tween 20, […]
0.02 % BSA, 0.004 % sodium azide and 7.4 mM DTT) with compounds (11-point, 3-fold […]
dilution series) added to give a final DMSO concentration of 0.09 %. Assay plates were […]
incubated for 1 h, prior to washing and elution of beads. The bromodomain concentration […]
in the eluates was measured by qPCR of the DNA tag on the bromodomain.
KD values were calculated with a standard dose-response curve fitted using the Hill […]
Response = Background + Signal − Background […]
The Hill Slope was set to -1 and curves fitted using a non-linear least square fit with the Levenberg-Marquardt algorithm.
Ligand efficiency (LE) was calculated as follows: LE = 1.4(pIC50)/N

Compound `Cc1cc2c(NC(=O)c3cc(NC(=O)CCCCCCCCCCNc4cccc5c4C(=O)N(C4CCC(=O)NC4=O)C5=O)cc(-c4ccn(C)n4)c3)cccc2nn1` (stereo not drawn) [dCE-2] yielded a concentration for 50% growth inhibition (GI50) with MM1S cells of 35 nM. Also, the affinity on CBP-BRD (BROMOscan), expressed as Kd, was 1300 nM. Also, the “loss of potency compared to parent compound 3, CBP” value on CBP-BRD (BROMOscan KD ratio) is reported as over 40 fold.
